Laboratory results taken from US20060205826A1, “Method of using carotenoids in the prevention of cognitive decline and for other neuroprotection functions” (priority 2005, published 2006).
“Also recorded” adds a separate entry of the source.

Tests used:
[1] = system: diabetic rats; details: Lupien et al. (2003); cited from earlier work
[2] = system: MDA, a lipid peroxidation product; experiment: MDA concentration by liquid chromatography in serum, eye and hippocampus of diabetic mice; type: in vivo
Description: (§1) Male albino mice were used throughout the study, housed in a environmentally regulated room on a dark-light cycle of 12 hours with free access to food and water. Principles of laboratory animal care (NIH publication no. 85-23, revised 1985) were followed, as well as specific Spanish regulations. Animals were made diabetic with a single subcutaneous injection of 200 mg alloxan/kg body weight (66 mg/ml) in 0.1 M citrate buffer, pH 4.5, at day 0 of the experiment. Control mice were injected with the same volume of vehicle also at day 0 of the experiment.
Mice were identified as diabetic on the basis of blood glucose levels (higher than 16 mM at least 4 days after alloxan treatment). Animals were divided into subgroups as required by the experiment (control, control+lutein, diabetic, diabetic+lutein, diabetic+insulin, diabetic+insulin+lutein). […] Insulin treated animals were injected daily with 500 mU/g body weight since day 4 until the end of the experiment. Mice were killed by cervical dislocation on day 14, and hippocampus and retina were removed and homogenized in pre-chilled 0.2 M potassium phosphate buffer, pH 7.0. These homogenates were used to assay protein, GPx activity and MDA and GSH concentrations. Samples were kept frozen (−80° C.) until biochemical assays were performed. Blood was taken from the tail vein daily to assay blood glucose levels. Glycated hemoglobin was determined in blood samples obtained by heart puncture immediately before killing the animals.
MDA, a lipid peroxidation product, concentration was measured by liquid chromatography according to a modification of the method of Richard et al. (1992) as previously described (Romero et al., 1998). Briefly, 0.1 ml of sample (or standard solutions prepared daily from 1,1,3,3-tetramethoxypropane) and 0.75 ml of working solution (thiobarbituric acid 0.37% and perchloric acid 6.4%; 2/1, v/v) were mixed and heated to 95° C. for 1 h. After cooling (10 min in ice water bath), the flocculent precipitate was removed by centrifugation at 3,200×g for 10 min. The supernatant was neutralized and filtered (0.22 μm) prior to injection on an ODS column 5 μm column (250×4.6 mm). Mobile phase consisted in 50 mM phosphate buffer (pH 6.0): methanol (58:42, v/v). Isocratic separation was performed with 1.0 ml/min flow (HPLC System 325, Kontron) and detection at 532 nm (UV/VIS HPLC Detector 332, Kontron). Calibration curves were run daily.

[3] = system: GPx activity; experiment: GPx activity in eye and hippocampus homogenate of diabetic mice; type: in vivo
Description: (§2) Male albino mice were used throughout the study, housed in a environmentally regulated room on a dark-light cycle of 12 hours with free access to food and water. Principles of laboratory animal care (NIH publication no. 85-23, revised 1985) were followed, as well as specific Spanish regulations. Animals were made diabetic with a single subcutaneous injection of 200 mg alloxan/kg body weight (66 mg/ml) in 0.1 M citrate buffer, pH 4.5, at day 0 of the experiment. Control mice were injected with the same volume of vehicle also at day 0 of the experiment. Mice were identified as diabetic on the basis of blood glucose levels (higher than 16 mM at least 4 days after alloxan treatment). Animals were divided into subgroups as required by the experiment (control, control+lutein, diabetic, diabetic+lutein, diabetic+insulin, diabetic+insulin+lutein). […] Insulin treated animals were injected daily with 500 mU/g body weight since day 4 until the end of the experiment. Mice were killed by cervical dislocation on day 14, and hippocampus and retina were removed and homogenized in pre-chilled 0.2 M potassium phosphate buffer, pH 7.0. These homogenates were used to assay protein, GPx activity and MDA and GSH concentrations. Samples were kept frozen (−80° C.) until biochemical assays were performed. Blood was taken from the tail vein daily to assay blood glucose levels. Glycated hemoglobin was determined in blood samples obtained by heart puncture immediately before killing the animals. GPx activity was assayed as reported by Lawrence et al. (1978) towards hydrogen peroxide. The disappearance of NADPH was followed spectrophotometrically at 340 nm. The reaction mixture consisted of 240 mU/ml of glutathione disulfide reductase, 1 mM GSH, 0.15 mM NADPH in 0.1 M potassium phosphate buffer, pH 7.0, containing 1 mM EDTA and 1 mM sodium azide; 50 μl sample were added to this mixture and allowed to equilibrate at 37° C. for 3 min. reaction was started by the addition of 1.5 mM hydrogen peroxide to adjust the final volume of the assay mixture to 1 ml.

[4] = system: GSH; experiment: GSH content in hippocampus homogenate of diabetic mice; type: in vivo; details: lutein 0.2 mg/kg p.o. or insulin 500 mU/g s.c. on days 4-13
Description: as §1
Mice were identified as diabetic on the basis of blood glucose levels (higher than 16 mM at least 4 days after alloxan treatment). Animals were divided into subgroups as required by the experiment (control, control+lutein, diabetic, diabetic+lutein, diabetic+insulin, diabetic+insulin+lutein). Lutein was administered daily at a dose of 0.2 mg/kg p.o since day 4 after alloxan or citrate buffer injection until the end of the experiment. […] Glycated hemoglobin was determined in blood samples obtained by heart puncture immediately before killing the animals.
The GSH content of eye homogenate was quatitated by the method of Reed et al. (Reed et al., 1980). […] These products are quickly separated by HPLC which allows the quantification of nanomolars levels of GSH.

[5] = system: alloxan diabetic mice; experiment: Electroretinogram (ERG) amplitude in diabetic mice; type: in vivo; details: lutein 100 mg/kg p.o. or insulin 500 mU/g s.c. on days 4-13
Description: as §2, with “Samples were kept frozen (−80° C.) until biochemical assays were performed. Blood was taken from the tail vein daily to assay blood glucose levels.” left out, “animals.” for “animals. GPx activity was assayed as reported by Lawrence et al. (1978) towards hydrogen peroxide. The disappearance of NADPH was followed spectrophotometrically at 340 nm. The reaction mixture consisted of 240 mU/ml of glutathione disulfide reductase, 1 mM GSH, 0.15 mM NADPH in 0.1 M potassium phosphate buffer, pH 7.0, containing 1 mM EDTA and 1 mM sodium azide; 50 μl sample were added to this mixture and allowed to equilibrate at 37° C. for 3 min. reaction was started by the addition of 1.5 mM hydrogen peroxide to adjust the final volume of the assay mixture to 1 ml.”

[6] = system: diabetic rodents; details: insulin treatment from the onset of diabetes, Biessels et al 1998; cited from earlier work
[7] = system: diabetic mouse brain; details: diabetic mice killed 20 days after streptozotocin administration; Saravia et al. 2004; cited from earlier work
[8] = lutein 100 mg/kg p.o. or insulin 500 mU/g body weight s.c. on days 4-13

In the case of IGF-I, the “cognition-related performance in the water maze” value [1] is listed as “prevent loss of cognition-related performance”.
For insulin [reference compound], the “MDA levels in hippocampus” value ([2]; lutein 0.2 mg/kg p.o. or insulin 500 mU/g body weight s.c. on days 4-13) was “restored; also recorded: able to prevent this effect”, the “MDA levels in ocular tissue” value [2, 8] was “restored; also recorded: able to prevent this effect” and the “MDA levels in serum” value [2, 8] was “restored”. For the same molecule, the “retinal GPx activity” value ([3]; eye homogenate without lens, lutein 100 mg/kg p.o. or insulin 500 mU/g s.c. on days 4-13) was “partially reversed”, the “GPx activity in hippocampus homogenate” value ([3]; lutein 0.2 mg/kg p.o. or insulin 500 mU/g s.c. on days 4-13) was “restored” and the “GSH content in hippocampus homogenate” value [4] was “restored”. For the same molecule, the “ERG amplitude (mostly b-wave)” value [5] was “partially reversed” and the “learning impairment in Morris water maze” value [6] was “can prevent this learning impairment”.
For `C[C@]12CC[C@@H]3c4ccc(O)cc4CC[C@H]3[C@@H]1CC[C@@H]2O` [17beta-oestradiol], the brain cell proliferation [7] is listed as “restored”.
